The record followed here is ChEMBL document CHEMBL1201862, “PubChem BioAssay data set” (2004).

Holding throughout (test): inhibition of tumour cell growth, NCI panel, 48 h
For assay [1], the system named is T47D.
The subject of assay [2] is SNB-19.
The subject of assay [3] is A549.
Assay [4] relates to HCC 2998.
The test system of assay [5] is SK-MEL-5.
The subject of assay [6] is MOLT-4.
In assay [7] the test system is SW-620.
Assay [8] relates to CAKI-1.
In assay [9] the test system is HT-29.
Assay [10] relates to ACHN.
Assay [11] deals with RXF 393.
Assay [12] deals with OVCAR-8.
In assay [13] the test system is UACC-257.
For assay [14], the system named is HCT-116.
Assay [15] relates to Hs-578T.
In assay [16] the test system is M14.
Assay [17] relates to PC-3.
The test system of assay [18] is EKVX.
For assay [19], the system named is NCI-H460.

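Briefly, cells in 96-well plates were exposed to five compound concentrations for 48 h, and endpoints were estimated by linear interpolation. GI50 marks 50% less growth.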 Active and inactive are the calls of the source. Rule as the data show it: active = GI50 up to about 1.1 µM and inactive = higher.

Consider `NS(=O)(=O)c1ccc(/N=N/c2nc3[nH]cnc(=S)c3[nH]2)cc1`, for which the GI50 is 1.16 µM (inactive) in [1]; > 100 µM (inactive) in [2]; 4.93 µM (inactive) in assay [3]; 0.682 µM (active) in assay [4]; 5.36 µM (inactive) in assay [5]; 0.134 µM (active) in [6]. Also, the GI50 in assay [7] is 2.29 µM (inactive); in assay [8] it was 1.42 µM (inactive); in assay [9], 1.34 µM (inactive); in assay [10], 3.1 µM (inactive); in [11], 1.03 µM (active); in assay [12], 0.593 µM (active). For the same compound, the GI50 in assay [13] is 2.94 µM (inactive); in assay [14] it was 0.568 µM (active); in assay [15] it was 6.41 µM (inactive); in assay [16] it was 0.369 µM (active); in assay [17] it was 3.73 µM (inactive); in assay [18], 2.21 µM (inactive). In [19], the GI50 was 0.82 µM (active).

For `CC1C(C#N)(C#N)C(C#N)=C(N)C1(C)[N+](=O)[O-]` (stereo not drawn), the GI50 was > 10 µM (inactive) in assay [1]; > 100 µM (inactive) in assay [2]; 23.5 µM (inactive) in assay [3]; 47.6 µM (inactive) in assay [4]; > 100 µM (inactive) in [5]; 25.4 µM (inactive) in assay [6]. The GI50 was 51.1 µM (inactive) in [7]; 5.27 µM (inactive) in [8]; 26.2 µM (inactive) in assay [9]; 87.5 µM (inactive) in assay [10]; 43.1 µM (inactive) in assay [11]; 65.8 µM (inactive) in [12]. For the same compound, the GI50 in assay [13] was 79.8 µM (inactive); in assay [14], 58.3 µM (inactive); in [15], 64.9 µM (inactive); in assay [16] it was > 100 µM (inactive); in assay [17], 66.4 µM (inactive); in assay [18], 21.5 µM (inactive). Moreover, the GI50 in assay [19] is 30.6 µM (inactive).

As to `COC(=O)C1=CSC2(S1)C(C(=O)OC)=CSc1c2ss/c1=N\c1ccccc1` (stereo not drawn), the GI50 in [1] was 7.64 µM (inactive); in assay [2], 2.47 µM (inactive); in assay [3] it was 2.52 µM (inactive); in [4] it was 1.72 µM (inactive); in assay [5], 2.53 µM (inactive); in [6], 0.714 µM (active). The GI50 was 2.51 µM (inactive) in assay [7]; 2.98 µM (inactive) in assay [8]; 2.48 µM (inactive) in assay [9]; 2.56 µM (inactive) in [10]; 1.78 µM (inactive) in assay [11]; 1.81 µM (inactive) in [12]. For the same compound, the GI50 is 2.43 µM (inactive) in [13]; 1.83 µM (inactive) in assay [14]; 2.55 µM (inactive) in assay [15]; 2.02 µM (inactive) in assay [16]; 5.08 µM (inactive) in [17]; 4.59 µM (inactive) in assay [18]. The GI50 in assay [19] is 3.07 µM (inactive).

Regarding `Nc1ncnc2c1ncn2C1C=CC(CP(=O)(O)O)C1` (stereo not drawn), the GI50 in assay [1], in assay [2], in assay [3], in [4], in [5] and in assay [6] was > 100 µM (inactive) each time. The GI50 in [7], in [8], in assay [9], in assay [10], in assay [11] and in [12] was > 100 µM (inactive) each time. Also, the GI50 was > 100 µM (inactive) in assay [13]; > 100 µM (inactive) in assay [14]; 11 µM (inactive) in [15]; > 100 µM (inactive) in [16]; > 100 µM (inactive) in assay [17]; > 100 µM (inactive) in assay [18]. Moreover, in assay [19], the GI50 is > 100 µM (inactive).

In the case of `C=C1C[C@@H](O)[C@@H](Br)C(C)(C)[C@]12CCC(C)(Cl)C(Br)C2` (stereo partly drawn), the GI50 in assay [1] was 19.5 µM (inactive); in [2] it was > 31.6 µM (inactive); in [3], 26.2 µM (inactive); in assay [4], 13.2 µM (inactive); in assay [5] it was 7.71 µM (inactive); in assay [6], 36.4 µM (inactive). Moreover, the GI50 in assay [7] was 39.9 µM (inactive); in [8], 34.8 µM (inactive); in [9], 29 µM (inactive); in assay [10], 32.8 µM (inactive); in assay [11], 28.6 µM (inactive); in assay [12], 34.7 µM (inactive). Moreover, the GI50 in [13] is 21.6 µM (inactive); in assay [14], 32.3 µM (inactive); in assay [15], 27.4 µM (inactive); in assay [16], 34 µM (inactive); in assay [17] it was 0.431 µM (active); in assay [18], 4.35 µM (inactive). In addition, the GI50 in assay [19] was 27.3 µM (inactive).

`CC(=O)O[C@H]1C(=O)[C@@]2(C)[C@H]([C@H](OC(=O)c3ccccc3)[C@]3(O)C[C@H](OC(=O)[C@H](O)[C@@H](NC(=O)OC(C)(C)C)c4ccco4)C(C)=C1C3(C)C)[C@]1(OC(C)=O)CO[C@@H]1C[C@@H]2O`: the GI50 in [1] is 0.264 µM (active); in [2] it was 0.00971 µM (active); in assay [3] it was < 0.005 µM (active); in [4] it was < 0.005 µM (active); in [5], < 0.005 µM (active); in assay [6], 0.00667 µM (active). Moreover, the GI50 in [7] is < 0.005 µM (active); in assay [8] it was 0.00802 µM (active); in [9], < 0.005 µM (active); in [10], 8.2 µM (inactive); in assay [11] it was 0.00899 µM (active); in assay [12] it was 0.00615 µM (active). For the same compound, the GI50 in assay [13] was 11.1 µM (inactive); in assay [14] it was < 0.005 µM (active); in assay [15], < 0.005 µM (active); in [16] it was 0.0794 µM (active); in assay [17], < 0.005 µM (active); in assay [18], 14.7 µM (inactive). In [19], the GI50 was < 0.005 µM (active).

As for `Cc1ccc(S(=O)(=O)n2c3c(c4ccccc42)CCN2C(=O)C(S(=O)(=O)c4ccccc4)=CCC32)cc1` (stereo not drawn), the GI50 in assay [1] is 0.154 µM (active); in assay [2], 0.652 µM (active); in assay [3], 1.22 µM (inactive); in [4] it was 0.212 µM (active); in [5], 0.165 µM (active); in assay [6], 0.304 µM (active). The GI50 was 0.281 µM (active) in assay [7]; 0.262 µM (active) in assay [8]; 0.212 µM (active) in assay [9]; 0.193 µM (active) in assay [10]; 0.14 µM (active) in assay [11]; 0.167 µM (active) in [12]. The GI50 in assay [13] was 0.169 µM (active); in [14], 0.17 µM (active); in assay [15], 0.579 µM (active); in assay [16], 0.175 µM (active); in assay [17], 0.239 µM (active); in assay [18], 0.448 µM (active). The GI50 in assay [19] is 0.368 µM (active).
